Measurements taken from patent US10767179B2, “MicroRNA composition for the treatment of neuroblastoma” (THE BOARD OF REGENTS OF THE UNIVERSITY OF TEXAS SYSTEM, priority 2014, dated 2020).

Assays:
Assay type in all cases: cell-based
BE(2)-C cells [1] = experiment: High-content screen: detection and quantification of neurite outgrowth; set-up: key: neurite length normalized to the mean of its plate; details: 25 nM miRNA mimic, 4 days transfection, normalized to plate mean
Experimental: FIG. 2A-2C. HCS screening of miRNA mimics identifies miRNAs that induce neurite outgrowth in BE(2)-C cells. (A-B) 2,500 cells were reverse-transfected with 25 nM miRNA mimics in 96-well plates. After 4 days transfection, relative neurite lengths were quantified as above. (A) The distribution of post-normalized neurite length measurements (grey histogram) for individual miRNA mimics from the screen and the fitted Gamma distribution curve (␣=3.27, ┘=0.444) (B) Correlation between two independent neurite length measurements for one library plate. Cells were transfected with 25 nM mimics in two independent 96-well plates. Normalized neurite lengths were measured as above. Correlation of neurite length between the two plates was analyzed using two-tailed Pearson Correlation with p<0.05 considered significant. (C) The distribution of the neurite lengths for untreated BE(2)-C cells. 2,500 Cells were plated into each well in 96 well plates. After 4 days of culture, neurite lengths were analyzed as above. Shown are the neurite length distribution histogram, the empirical density curve, and the fitted Gamma distribution curve (␣=30.23, ␣=0.033).
Detection and Quantification of Neurite Outgrowth. Cells were plated and treated in 96-well plates. For detecting neurite outgrowth, cells were placed into ZOOM IncuCyte Imaging System (Essen BioScience) and cell images were taken under 20× microscopic magnification. For detecting neurite outgrowth in a time-dependent manner, cell images were taken every 6 h. The neurite lengths associated with each treatment were calculated using the neurite definition defined for each specific cell line using the NeuroTrack system (Essen BioScience).
Analysis of HCS Data. The relative neurite length associated with cells in each well on the screen plates was determined as above. In order to allow for plate-to-plate comparison, neurite length associated with each well in each plate was first internally normalized to the mean of the corresponding plate, and multiple screen plates were then aggregated together to generate the neurite length distribution. The data were then further analyzed to determine the distribution of the unaffected cells as described below, and to identify differentiation-inducing miRNA mimics.
Statistical Analysis. For HCS, p-value for neurite length associated with each miRNA mimic was evaluated by assuming the distribution of neurite lengths follows Gamma distribution, and false Discovery Rate (FDR) was determined by Benjamini-Hochberg correction method for multiple tests (Benjamin, Journal of the Royal Statistical Society Series B (Methodological), 1995, 57(1):12). […] For all other conditions, the statistical significance for each treatment was determined using t-test by comparing the treatment group with control, with p<0.05 considered statistically significant.

BE(2)-C cells [2] = experiment: Cell Viability Assay (CellTiter-Glo)
Experimental: Cell Viability Assay. Cells were plated in 96-well format and treated as specified. After culturing for 120 h, cell viability was determined using the CellTiter-Glo Luminescent Cell Viability Assay (Promega).

[3] = system: cleaved CASPASE 3 and PARP; experiment: Western blots of apoptosis markers in BE(2)-C cells; details: ATRA 5 days, dose-dependent
Experimental: (§1) Western Blots. Cell lysates were prepared using RIPA buffer. Protein concentration was determined using the Pierce BCA assay (Thermo Fisher Scientific). For electrophoresis, equal amounts of cell lysate were resolved by SDS-PAGE and transferred to Immun-Blot PVDF membranes (Bio-Rad Laboratories). Membranes were blocked and probed with primary antibodies to specific proteins. Bound antibodies were detected with secondary antibodies conjugated with horseradish peroxidase (HRP) visualized by enhanced chemiluminescent (ECL) substrate (Pierce).

[4] = system: GAP43, NSE and β-TUBULIN III; experiment: Western blots of differentiation markers in BE(2)-C cells; details: ATRA 5 days, dose-dependent
Experimental: as §1

PCNA and Ki67 = experiment: Western blots of cell proliferation markers in BE(2)-C cells; details: ATRA 5 days, dose-dependent
Experimental: as §1

BE(2)-C cells [5] = experiment: High-content screen: detection and quantification of neurite outgrowth; details: ATRA vs carrier (DMSO), 5 days

Compound	Neurite length (mean ± SD) (BE(2)-C cells [1])	other results
hsa-miR-3937: miRNA mimic, mature sequence ACAGGCGGCUGUAGCAAUGGGGG (SEQ ID NO: 17) (listed as RNA, chemistry not given here)	6.93 ± 1.05	
CC1=C(/C=C/C(C)=C/C=C/C(C)=C\C(=O)O)C(C)(C)CCC1 [cis-RA, 13-cis retinoic acid]		Cell viability when reaching plateau (BE(2)-C cells [2]; treated for 5 days): 42.6±3.7%
hsa-miR-34a-5p: miRNA mimic, mature sequence UGGCAGUGUCUUAGCUGGUUGU (SEQ ID NO: 7) (UGGCAGUGUCUUAGCUGGUUGU(2); as printed in the source, key not given here)	9.49 ± 3.18	
hsa-miR-449a: miRNA mimic, mature sequence UGGCAGUGUAUUGUUAGCUGGU (SEQ ID NO: 10) (UGGCAGUGUAUUGUUAGCUGGU(2); as printed in the source, key not given here)	9.16 ± 2.47	
hsa-miR-449b-5p: miRNA mimic, mature sequence AGGCAGUGUAUUGUUAGCUGGC (SEQ ID NO: 15) (AGGCAGUGUAUUGUUAGCUGGC(2); as printed in the source, key not given here)	7.40 ± 1.85	
hsa-miR-137: miRNA mimic, mature sequence UUAUUGCUUAAGAAUACGCGUAG (SEQ ID NO: 16) (listed as RNA, chemistry not given here)	7.03 ± 1.36	
hsa-miR-34b-Sp: miRNA mimic, mature sequence UAGGCAGUGUCAUUAGCUGAUUG (SEQ ID NO: 12) (listed as RNA, chemistry not given here)	8.41 ± 2.16	
hsa-miR-107: miRNA mimic, mature sequence AGCAGCAUUGUACAGGGCUAUCA (SEQ ID NO: 13) (AGCAGCAUUGUACAGGGCUAUCA(3); as printed in the source, key not given here)	7.60 ± 1.98	
hsa-miR-135b-5p: miRNA mimic, mature sequence UAUGGCUUUUCAUUCCUAUGUGA (SEQ ID NO: 6) (listed as RNA, chemistry not given here)	14.02 ± 4.29	
hsa-miR-3714: miRNA mimic, mature sequence GAAGGCAGCAGUGCUCCCCUGU (SEQ ID NO: 14) (listed as RNA, chemistry not given here)	7.56 ± 1.91	
CC1=C(/C=C/C(C)=C/C=C/C(C)=C/C(=O)O)C(C)(C)CCC1 [ATRA, all-trans retinoic acid]		Expression of apoptosis markers (cleaved CASPASE 3, PARP) [3]: increases expression of apoptosis markers; Expression of neuroblastoma differentiation markers (GAP43, NSE, β-TUBULIN III) [4]: stimulates expression of neuroblastoma differentiation markers; Expression of cell proliferation markers (PCNA, Ki67) (PCNA and Ki67): inhibits expression of cell proliferation markers; Cell viability (BE(2)-C cells [2]; 5 days, dose-dependent): decreases cell viability; Relative neurite length compared to control (BE(2)-C cells [5]): significantly increases the relative neurite length
hsa-miR-103a-3p: miRNA mimic, mature sequence AGCAGCAUUGUACAGGGCUAUGA (SEQ ID NO: 8) (AGCAGCAUUGUACAGGGCUAUGA(3); as printed in the source, key not given here)	9.43 ± 2.67	
hsa-miR-450b-3p: miRNA mimic, mature sequence UUGGGAUCAUUUUGCAUCCAUA (SEQ ID NO: 9) (listed as RNA, chemistry not given here)	9.26 ± 2.64	
